# Data: the Biogen ADME set (Fang et al. 2023)
# Conditions: for aqueous solubility: pH 6.8
SMILES,"intrinsic clearance, human liver microsomes [mL/min/kg]","intrinsic clearance, rat liver microsomes [mL/min/kg]",MDR1-MDCK efflux ratio,aqueous solubility [µg/mL],"fraction unbound, human plasma","fraction unbound, rat plasma"
Cc1ccc(C)c(NC(=O)c2cccc(-c3ncon3)c2)c1,41.7,164,–,–,–,–
O=S1(=O)CCN(C2CCN(CC(F)(F)F)CC2)CC1,≤ 4.74,20.1,0.765,–,–,–
O=C(Nc1ccccc1)Nc1ccc(OC(F)(F)F)cc1,–,–,0.328,0.8,–,–
CC(C)c1nnc(-c2ccc(-c3ccccc3)nc2)n1-c1cccc2nonc12,8.27,518,4.09,53.4,–,–
COc1ccc(CCC(=O)N2CCN(C(=O)c3cc4n(n3)CCCC4)CC2)cc1,16.3,867,5.94,83.4,–,–
Cn1cc(C(=O)N2CCC(c3cc(C(F)(F)F)c4c(n3)CCNC4=O)CC2)ccc1=O,≤ 4.74,≤ 10.7,0.752,53,–,–
N#CCC1(n2cc(-c3ncnc4[nH]ccc34)cn2)CNC1,–,–,–,32.6,–,–
CCN(CC)C(=O)N1CCC(C(=O)O)CC1,≤ 4.74,≤ 10.7,4.41,60.2,–,–
Cc1ccc(Oc2ccc(Cl)cc2NC(=O)CN(C)CC(=O)N(C)C)cc1,1050,2420,1.61,–,0.00885,–
c1sc(NCC2CCCO2)nc1C12CC3CC(CC(C3)C1)C2 (centres undefined),45.7,–,0.537,–,0.0008,–
O=C(NCc1ccc(O)c(O)c1)c1ccc2ccccc2n1,≤ 4.74,315,–,55.4,–,–
O=C(Nc1nc(-c2ccccn2)cs1)c1ccc(F)cc1Cl,82.2,127,0.149,5.16,–,–
CC(C)c1nsc(N2CCC(Nc3cccnc3)CC2)n1,26.3,403,0.816,–,–,–
CCc1nnc(NC(=O)c2ccc3cc(OC)ccc3n2)s1,35.9,105,0.248,4.17,–,–
CNC(=O)c1ccc(-c2nnc(-c3cccc(C)c3)o2)cc1,–,–,–,0.21,–,–
Cc1cnc(CNC2(c3nccs3)CCCC2)cn1,≤ 4.74,245,–,–,–,–

SMILES,"intrinsic clearance, human liver microsomes [mL/min/kg]","intrinsic clearance, rat liver microsomes [mL/min/kg]",MDR1-MDCK efflux ratio,aqueous solubility [µg/mL],"fraction unbound, human plasma","fraction unbound, rat plasma"
Cc1cc(C)c(S(=O)(=O)Nc2ccc(N(C)C)cc2)c(C)c1-n1cnnn1,118,89.2,9.73,2.73,–,–
Cc1ccc2nc(C)c(-c3nc(C)nn3CCO)cc2c1,≤ 4.74,19.3,9.02,27,–,–
CCN(CC)Cc1cnc(NC(=O)c2ccccc2)s1,≤ 4.74,192,–,–,–,–
CC(C)COc1cc(F)cc(-c2cncc(C(=O)N3CCCC3)n2)c1,–,–,0.442,0.7,–,–
CCCNC(=O)c1ccc(OC2CCN(C)CC2)cc1,≤ 4.74,35.1,–,–,–,–
COCC(=O)N(CC1CCCO1)c1nc2c(s1)CCc1c-2cnn1C (centres undefined),6.3,14.2,–,–,–,–
CCCc1ccc(C(=O)CSc2nncs2)cc1,276,1260,0.471,–,–,–
CN(C)c1nc(-c2cccc(-c3ccccc3)c2)n[nH]1,–,–,–,0.81,–,–
O=C(COc1cccc(-n2cncn2)c1)N1CCc2ccccc21,37.8,336,–,–,–,–
O=C(CCC1CCOCC1)Nc1ccc(C(=O)O)cc1,≤ 4.74,≤ 10.7,–,–,–,–
Nc1ncnc2c1c(-c1cnc3[nH]ccc3c1)nn2C1CCCC1,101,1210,6.9,–,0.0729,0.0603
COc1ccc([C@H]2c3[nH]c4ccc(Cl)cc4c3CCN2C(=O)Oc2ccc(Cl)cc2)cc1,–,–,0.432,0.1,0.326,0.568
O=C(c1cn(Cc2cncn2Cc2ccc(Br)cc2)cc1-c1cccc2ccccc12)N1CCOCC1,150,2010,22.8,–,–,–
COc1cc(F)ccc1-c1ncnc(Nc2cccc(C[S@@](C)(=N)=O)c2)n1,≤ 4.74,≤ 10.7,150,53.7,0.393,0.375
CNC(=O)N1CCc2nc3ccc(Cl)cn3c(=O)c2C1,≤ 4.74,≤ 10.7,6.16,50.5,–,–
